This test has as its target GLR3.4-S1S2 (Arabidopsis thaliana, UniProt Q8GXJ4, DEL602-708). Nature of the test: crystal structure. In kind it is binding. The following applies: endogenous ligand from expression, none added.

GLR3.4-S1S2, sequence (Q8GXJ4 492-601, stated change not applied): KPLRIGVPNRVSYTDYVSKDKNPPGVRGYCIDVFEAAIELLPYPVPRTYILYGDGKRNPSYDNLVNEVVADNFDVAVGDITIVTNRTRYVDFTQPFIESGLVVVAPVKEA
GLR3.4-S1S2, sequence (Q8GXJ4 709-842, stated change not applied): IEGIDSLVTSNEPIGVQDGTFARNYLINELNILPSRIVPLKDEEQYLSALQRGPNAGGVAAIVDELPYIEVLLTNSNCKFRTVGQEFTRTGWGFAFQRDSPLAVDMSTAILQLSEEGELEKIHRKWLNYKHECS

Regarding `N[C@@H](CO)C(=O)O` [serine], the crystal structure result is reported as “The serine-bound LBD structure was solved without adding the ligand to the protein”.

These data come from publication PMC8349882 (Molecular cell, 2021).
